Patent US6210917A, “Method for suppressing multiple drug resistance in cancer cells” (priority 1997, dated 2001)

Key:
[1] = system: MTAse competent A427 cells; assay: growth restoration by MTAse substrates after L-alanosine (FIG. 3); assay type: cell-based
[2] = system: MTAse competent MOLT-4 cells; assay: as above; assay type: cell-based
[3] = system: MTAse deficient A549 cells; assay: as above; assay type: cell-based
[4] = system: MTAse deficient CEM cells; assay: as above; assay type: cell-based
MV522Q6 cells = assay: growth of MDR cells by reduction of a tetrazolium dye (FIG. 1A); assay type: cell-based, human; conditions: 10 μM; for sensitivity of the resistant cell line to chemotherapy: MV522Q6 compared with MV522, three days
Method: MV522 is a human cancer cell line; MV522Q6 is a variant of the cell line with MDR. Each cell line was grown in a monolayer as and contacted with 10 μM of a chemotherapeutic agent and/or L-alanosine (as shown in FIGS. 1A and 1B). Growth, or the lack thereof, was measured in each population of cells by reduction of a tetrazolium dye after three days in culture.
FIG. 1A is a graph depicting the effect of L-alanosine and different chemotherapeutic agents (vinblastine and taxol) on a MDR cancer cell line (MV522Q6). FIG. 1B is a graph depicting the effect of the same drugs on the cell line before acquisition of resistance (MV522). […] However, the adenine synthesis inhibitor L-alanosine is nearly 10 times as potent in the resistant cell line than the other agents tested.

MES-SA/Dx5 cells [5] = assay: growth of MES-SA/Dx5 drug resistant cells with L-alanosine and other agents; assay type: cell-based; conditions: data not shown
[6] = system: MTAse deficient H292 cells; assay: proliferation in presence of L-alanosine with MTA or adenine added (FIG. 2); assay type: cell-based; conditions: L-alanosine 40 μM
A549 NSCLC cells = assay: tumor xenograft in nude mice, MTAP-deficient A549 cells (FIG. 5); assay type: in vivo, Balb/c athymic nude mice; conditions: i.p. every 12 hours; 15 mg/kg per injection 7 days then 22.5 mg/kg 5 days
Method: (§1) 10^7 A549 or A427 NSCLC cells were injected subcutaneously into 6-week old Balb/c athymic nude mice. When tumors had reached approximately 0.4 cm diameter, treatment was begun with L-alanosine or saline by intraperitoneal injection every 12 hours. Mice received 15 mg/kg per injection for 7 days then 22.5 mg/kg for 5 days. Tumor size was measured as the product of perpendicular diameters. The results for treated (n=6 [sample size] for each cell type) vs. control (n=4 [sample size] for each cell type) mice are shown in FIG. 5.

A427 NSCLC cells = assay: tumor xenograft in nude mice, MTAP-positive A427 cells (FIG. 5); assay type: in vivo, Balb/c athymic nude mice; conditions: i.p. every 12 hours; 15 mg/kg per injection 7 days then 22.5 mg/kg 5 days
Method: as §1

[7] = toxicity / body weight of nude mice in xenograft study; assay type: in vivo, Balb/c athymic nude mice
Method: 10^7 A549 or A427 NSCLC cells were injected subcutaneously into 6-week old Balb/c athymic nude mice. When tumors had reached approximately 0.4 cm diameter, treatment was begun with L-alanosine or saline by intraperitoneal injection every 12 hours.
Mice received 15 mg/kg per injection for 7 days then 22.5 mg/kg for 5 days. Tumor size was measured as the product of perpendicular diameters. The results for treated (n=6 [sample size] for each cell type) vs. control (n=4 [sample size] for each cell type) mice are shown in FIG. 5.

human cancers = conditions: cited from earlier work
melanoma = conditions: Phase II, melanoma patients; cited from earlier work
breast cancer = breast cancer patients; cited from earlier work
MTAse competent cancers = conditions: cited from earlier work
[8] = humans, intravenous, cited from earlier work
[9] = cited from earlier work
MES-SA/Dx5 cells [10] = conditions: cited from earlier work

C[C@H]1O[C@@H](n2cnc3c(N)ncnc32)[C@H](O)[C@@H]1O [5'-deoxyadenosine]
growth restoration [1]: growth restoration
growth restoration [2]: growth restoration
growth restoration [3]: remained growth inhibited
growth restoration [4]: remained growth inhibited

N[C@@H](CN(O)N=O)C(=O)O [L-alanosine]
potency of L-alanosine in the resistant cell line relative to the other agents tested (MV522Q6 cells; MV522Q6 (MDR), three days in culture): ~10 times
potency in the resistant cell line vs the non-resistant cell line (MV522Q6 cells; MV522Q6 vs MV522): as, if not more, potent in the resistant cell line than in the non-resistant cell line
effect on drug resistant cell line vs other agents tested (MES-SA/Dx5 cells [5]): significantly more affected by L-alanosine than by the other agents tested
inability to proliferate in the presence of L-alanosine despite MTA ([6]; H292 compared with Calu-6, with MTA): selective inability of MTAse deficient NSCLC cells to proliferate
size of well-established MTAP-deficient tumors (A549 NSCLC cells): decrease in the size
effect on growth of MTAP-positive cells (A427 NSCLC cells): no effect on the growth
toxicity ([7]; 15 and 22.5 mg/kg per injection, i.p. every 12 hours): No toxicity was evident
body weight ([7]; throughout testing): stable weights
overall response rate (human cancers; Phase II studies, Creagan et al.): 4%
efficacy for treatment of human cancers (human cancers; Tyagi and Cooney 1984): little encouragement
therapeutic response (melanoma): little therapeutic response observed
objective responses (breast cancer): no objective responses observed
success in clinical trials (MTAse competent cancers): no appreciable success
plasma clearance [8]: biphasic
t1/2α ([8]; plasma, biphasic, approximate): ~14 min
t1/2β ([8]; plasma, biphasic, approximate): ~99 min
dose limiting toxicity ([9]; continuous infusion about 125 mg/m^2 for 5 days, adults, acute non-lymphoblastic leukemia, phase II): mucositis
toxicity after multiple bolus dosing ([9]; multiple bolus dosing): Stomatitis and esophagitis
dose-limiting toxicity ([9]; prior clinical trials): renal toxicity, stomatitis, esophagitis
reactions with lesser frequency ([9]; prior clinical trials): myelosuppression, headache, nausea and hypo- or hypertension
dose at which renal toxicity occurred ([9]; single bolus dosing): above 4 g/m^2 body weight
dose at which two pediatric patients suffered liver failure ([9]; two pediatric patients, separate doses): about 350 mg/m^2 body weight per day

Nc1ncnc2nc[nH]c12 [adenine]
proliferation of control cultures containing adenine ([6]; control cultures with adenine (Calu-6 / H292)): proliferate despite L-alanosine

CC(=O)O[C@H]1C(=O)[C@@]2(C)[C@H]([C@H](OC(=O)c3ccccc3)[C@]3(O)C[C@H](OC(=O)[C@H](O)[C@@H](NC(=O)c4ccccc4)c4ccccc4)C(C)=C1C3(C)C)[C@]1(OC(C)=O)CO[C@@H]1C[C@@H]2O [taxol]
sensitivity of the resistant cell line to chemotherapy (MV522Q6 cells): greatly reduced
resistance level to chemotherapeutic agents (MES-SA/Dx5 cells [10]): highly resistant

CC[C@]1(O)C[C@@H]2CN(CCc3c([nH]c4ccccc34)[C@@](C(=O)OC)(c3cc4c(cc3OC)N(C)[C@H]3[C@@](O)(C(=O)OC)[C@H](OC(C)=O)[C@]5(CC)C=CCN6CC[C@]43[C@@H]65)C2)C1 [vinblastine]
sensitivity of the resistant cell line to chemotherapy (MV522Q6 cells): greatly reduced
resistance level to chemotherapeutic agents (MES-SA/Dx5 cells [10]): highly resistant
